Experiments:
FGF21 = FGF21 mRNA expression in 266-6 murine acinar cells (RT-qPCR); type: cell-based; conditions: 266-6 cells
Description: Using one of these models, RT-qPCR analysis of FFG21 mRNA expression was performed in 266-6 murine acinar cells after 6 hours treatment of DMSO/different doses of SR1078 (commercial ROR-α agonist). The statistical significance was calculated relative to DMSO and was determined by Student's t test (two-tailed). Values in graphs are mean±SD. *p<0.05, **p<0.01, ***p<0.001, ****p<0.0001.

[1] = test system: high-fat-fed C57BL/6 mice; assay: High-fat-diet-fed C57BL/6 mice treated with Compound 1 and/or antagomiR-122; type: in vivo; conditions: 50% HFD; Compound 1 7.5 mg/kg i.p. twice a week, antagomiR once a week, 3 weeks
Description: C57BL/6 mice were fed a 50% high fat diet (HFD) for four weeks. The control cohort received three hydrodynamic tail vein injections of a 5 μg antagomiR-control and six i.p injections of saline over three weeks. A second cohort was hydrodynamic tail vein injected with 5 μg antagomiR-122 (the reverse complement that inhibits activity of miR-122) three times and i.p injections of saline six times over three weeks. A third cohort was injected i.p. with Compound 1 (7.5 mg/kg) twice a week plus antagomiR-control once a week over the course of 3 weeks. The final cohort was injected i.p. with Compound 1 (7.5 mg/kg) twice a week plus antagomiR-122 injections once a week over the course of 3 weeks.
Male C57BL/6J mice, 7 to 8 weeks old, were housed randomly in standard cages and were fed a HFD, or atherogenic diet (consisting 1% Chol and 0.5% cholic acid, see also Table 6). All mice had free access to water during the experimental period. During the feeding period body weight was monitored every 3 days. In the HFD experiment, after 4 or 6 weeks, the resultant obese mice were treated with antagomiR-122 (5 μg/mouse once a week for 3 weeks), or i.p. injected with Compound 1 (RORα agonist, 7.5 mg/kg twice a week for 3 weeks; or 15 mg/kg 3 times a week for 3 weeks). The obese control (HFD) group was administered only saline with DMSO and antagomiR-control. After 3 weeks of treatment mice were sacrificed and livers were taken for RNA-seq analysis. Livers, white adipose, and skeletal muscle tissues were frozen in liquid nitrogen or in optimum cutting temperature embedded frozen blocks, for further RNA and histologic analysis. In the atherogenic diet experiment mice were treated with 15 mg/kg Compound 1 after 3 weeks with the diet. After 3.5 weeks of treatment, mice were sacrificed, and the livers were frozen in liquid nitrogen or in optimum cutting temperature embedded frozen blocks. Plasma was collected from atherogenic diet-fed mice and saved in −20° C. for ALT and AST analysis using the Reflotron® Analyzer and test-strips (Roche).
In the HFD experiment, after 4 or 6 weeks, the resultant obese mice were treated with antagoMIR122 (5 μg/mouse once a week for 3 weeks), or i.p. injected with Compound 1 (RORα agonist, 7.5 mg/kg twice a week for 3 weeks; or 15 mg/kg 3 times a week for 3 weeks). The obese control (HFD) group was administered only saline with DMSO and antagomiR-control.
Mice were fed with a 50% HFD and after 4 weeks, when fatty liver was already established, they were treated with Compound 1, antagoMIR122 or both compounds together for an additional 3 weeks. […] The weighing of mice began at week 3, one week before treatments were initiated. […] The liver weight of the mice was in accordance with their body weight.

MIR122 = assay: AntagoMIR122 treatment of chow or HFD fed mice; type: in vivo, C57BL/6 mice; conditions: for MIR122 levels in plasma, liver and white adipose tissue: hydrodynamic tail vein injection, 5 μg/mouse once a week
Description: C57BL/6 mice, 7 to 8 weeks old, were fed chow or 50% HFD, consisting of 50% Fat, 20% Sucrose, 10% Fructose, 1.25% Chol) (Envigo, TD.150235) for 4 weeks. In experiments of miR-122 repression by antagomiR, mice were hydrodynamic tail vain injected with antagomiR-122 or antagomiR-control (5 μg/mouse in 1.5 mL saline) once a week for 4 weeks and were still fed HFD or chow diet. After 4 weeks of injections mice were sacrificed and the livers, white adipose, and skeletal muscle tissues were frozen in liquid nitrogen or in optimum cutting temperature embedded frozen blocks, for further RNA and histologic analysis. AntagomiRs were obtained from Sigma-Aldrich (St Louis, MO); see Table 5.
C57BL/6 mice, 7 to 8 weeks old, were fed chow or 50% HFD, consisting of 50% Fat, 20% Sucrose, 10% Fructose, 1.25% Cholesterol) (Envigo, TD.150235) for 4 weeks. In experiments of MIR122 repression by antagomiR, mice were hydrodynamic tail vain injected with antagoMIR122 or antagomiR-control (5 μg/mouse in 1.5 mL saline) once a week for 3 weeks and were still fed HFD or chow diet. After 3 weeks of injections mice were sacrificed and the livers, gonadal white adipose, and skeletal muscle tissues were frozen in liquid nitrogen or in optimum cutting temperature embedded frozen blocks, for further RNA and histologic analysis. AntagomiRs were obtained from Sigma-Aldrich (St Louis, MO).

RORα = biological target: T1, RORα (Homo sapiens, UniProt P35398); assay: RORα activity by luciferase reporter (miR-122 promoter) in Huh-7 cells; type: cell-based; design: MIR122 promoter activity compared with SR1078: dose or concentration left out as unconfirmed; conditions: wild type and mutant RORA
T1 construct: endogenous in cells; host or cells: Huh-7 (Huh7) human hepatocellular carcinoma cells
T1 sequence (P35398 1-523): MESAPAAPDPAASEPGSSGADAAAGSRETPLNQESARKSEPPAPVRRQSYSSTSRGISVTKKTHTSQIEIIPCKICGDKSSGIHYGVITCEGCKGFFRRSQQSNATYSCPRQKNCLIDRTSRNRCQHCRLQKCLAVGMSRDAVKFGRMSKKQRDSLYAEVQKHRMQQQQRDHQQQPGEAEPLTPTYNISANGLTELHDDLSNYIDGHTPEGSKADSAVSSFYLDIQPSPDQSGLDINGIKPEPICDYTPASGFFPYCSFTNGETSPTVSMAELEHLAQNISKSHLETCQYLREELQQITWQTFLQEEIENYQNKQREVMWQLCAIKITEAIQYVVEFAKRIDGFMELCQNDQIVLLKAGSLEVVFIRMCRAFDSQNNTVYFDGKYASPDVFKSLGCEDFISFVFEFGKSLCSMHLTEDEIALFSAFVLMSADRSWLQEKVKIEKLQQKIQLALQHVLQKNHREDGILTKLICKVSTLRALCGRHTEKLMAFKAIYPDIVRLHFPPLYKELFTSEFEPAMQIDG
Description: Huh-7 cells were transfected with a luciferase reporter plasmid containing the miR-122 promoter (extends to −900 from the transcription start site) with intact wild-type (WT) RORα response element (RORE) or mutated RORE (mut). The cells were treated with Compound 1 one day (24 hours) post-transfection at the indicated concentrations. Luciferase expression was measured after 24 hours of treatment and normalized to Renilla Luciferase activity expressed from a co-transfected pRL plasmid. The pRL Vector, which provides constitutive expression of Renilla luciferase, was used in combination with a firefly luciferase vector to co-transfect cells. Expression of Renilla luciferase provides an internal control value to which expression of the experimental firefly luciferase reporter gene may be normalized.
Luciferase assay. For Luciferase assays, cells grown in 24 well plates were co-transfected with a luciferase reporter plasmid (50 ng) and 1 ng of Renilla Luciferase vector (PRL, Promega) using the TransIT-LT 1 (Mirus) transfection reagent (MIR 2300, Madison, WI). Firefly and Renilla luciferase activity was assessed using the Dual Luciferase Reporter Assay system (Promega). Readings were taken in triplicates on a Mithras LB 940 Luminometer (Berthold Technologies). […]
(§1) Following transfections, the cells were lysed with passive lysis buffer (Cat #E1941; Promega), shaking for 20 min at RT and transferred into appropriate 96-well plate. Firefly and Renilla luciferase activity was assessed using the Dual Luciferase Reporter Assay system (Cat #E1910; Promega) on a luminometer Mithras 2000 (Centro XZ, LB960, Berthold Technologies, Bad Wildbad, Germany). […] Readings were taken in triplicate.
as §1, with “room temperature (RT)” for “RT”, “into the” for “into”, “triplicates. […]” for “triplicate.”
After transfections, the cells were lysed with passive lysis buffer (catalog no. E1941, Promega), shaken for 20 minutes at room temperature, and transferred into the appropriate 96-well plate. Firefly and Renilla luciferase activity was assessed using the Dual Luciferase Reporter Assay system (catalog no. E1910, Promega) on a luminometer Mithras 2000 (Centro XZ, LB960; Berthold Technologies, Bad Wildbad, Germany). […] Readings were taken in triplicate.

[2] = test system: peripheral and the central benzodiazepine receptors; conditions: prediction later experimentally proven; cited from earlier work

O=C(Nc1ccc(C(O)(C(F)(F)F)C(F)(F)F)cc1)c1ccc(C(F)(F)F)cc1 [SR1078]
Fgf21 expression in acinar cells (FGF21; 6 hours treatment): increases Fgf21 expression
Concentration of optimal effect on Fgf21 expression (FGF21; 6 hours, effect decreasing at 20 and 40 μM): 10 micromolar (μM)

antagomiR-122: MIR122 antagonist; 2′-O Me-modified, phosphorothioate, cholesterol-linked reverse complement that inhibits activity of miR-122 (antisense ACAAACACCAUUGUCACACUCCA; all 2'-O-methyl, backbone not given here; phosphorothioate linkages and cholesterol conjugate, further chemistry not fully specified)
Body weight [1]: highest increase in weight
Mice weight (MIR122; HFD mice): increased significantly
Liver fat droplets, total TG liver content and muscle TG levels (MIR122; HFD-fed mice): increase
MIR122 levels in plasma, liver and white adipose tissue (MIR122): significantly reduced
MIR122 levels in plasma, liver and white adipose tissue (MIR122; listed as antagoMIR122): reduced significantly

O=C1Nc2cc(C(=O)N3CCC(Cc4ccccc4)CC3)ccc2Nc2ccccc21 [Compound 68]
MIR122 promoter activity compared with SR1078 (RORα): more potent than the commercial synthetic RORA agonist SR1078

CC(C)=CCC/C(C)=C/CC/C(C)=C/CN1C(=O)c2cccc(O)c2Nc2c(O)cc(O)cc21 [Diazepinomicin]
Predicted CNS activity (Gourdeau et al. 2008) [2]: predicted to be CNS inactive

— US20250339445A1, “Modulators of Orphan Nuclear Receptors for Treating Pancreatitis, Glioblastoma, Sarcopenia and Stroke” (Emory University, priority 2020, published 2025)
